Data on 15 compounds can be found in patent US20250270217A1, “IMIDAZ0[1,2-A]PYRIMIDINE-5(1 H)-ONES HAVING A COVALENT WARHEAD AT THE 3-POSITION AS WRN INHIBITORS” (Incyte Corporation, priority 2023, published 2025).

Test [1] concerns the target T1, WRN (Homo sapiens, UniProt Q14191).
T1 construct: A His-tagged construct of WRN (AA S2-S1235) was produced and used for the ATPase assay; His; made in house; host or cells: Sf9 insect cells (baculovirus)
As to the kind of experiment: WRN ATPase activity assay (ADP-Glo). Type of test: biochemical. Conditions: 1-hr pre-incubation with enzyme; 100 μM ATP, 25 nM forked dsDNA, 1 nM WRN; geometric mean of at least 2 replicates. As for the experimental part:
Compounds of the Examples were tested for WRN ATPase activity. WRN ATPase activity catalyzes ATP hydrolysis to produce ADP and phosphate. DNA encoding the target protein, 6×HIS-TEV-WRN-517-945, was produced, cloned and transfected as detailed in Example D. The amount of ADP produced was measured using ADP-Glo™ Kinase Assay kit from Promega Corporation in a Greiner white regular volume 384 wells assay plate (Greiner #781075). Data was normalized to a standard curve generated using various ADP concentrations and the corresponding luminescent signal intensities at each concentration. The assay conditions were optimized for enzyme concentration (WRN), substrate concentrations (ATP & dsDNA), and the linearity of the ATPase reaction, in the following assay buffer: 50 mM Tris-HCl, pH-7.5, 2 mM MgCl2, 50 mM NaCl, 1 mM EGTA, 0.01% P-20, 0.05% BSA, and 2 mM DTT prepared with nuclease free water.
A serial dilution (1:3 scheme) of the compounds were prepared in neat DMSO, with 100 nL of the compounds dispensed in the 384 wells assay plate. An 1-hr pre-incubation of the compounds with enzyme was included. A His-tagged construct of WRN (AA S2-S1235) was produced and used for the ATPase assay. Maximum inhibition control wells were set up with the addition of only assay buffer, and no inhibition control wells were set up with neat DMSO without test compounds. The reaction was initiated by addition of 5 μL substrate mix (200 μM ultrapure ATP, and 50 nM dsDNA prepared in assay buffer) and incubated at 25° C. for 35 min. A forked dsDNA oligomer substrate was prepared by annealing equal amounts of oligo GPat-1 ([BHQ2][…]) and oligo GPat-2 ([…][TAM]) and was used as dsDNA substrate for WRN ATPase assay. A typical ATPase reaction consists of 25 nM forked dsDNA, 100 μM ATP, and 1 nM WRN prepared in assay buffer. The WRN ATPase reaction was stopped by the addition of 5 μL of ADP-Glo Reagent from ADP-Glo™ Kinase Assay kit and incubated for 40 min to deplete the unreacted ATP. Afterwards, 5 μL of Kinase Detection Reagent from the ADP-Glo™ Kinase Assay kit was added and incubated for 1 hr for the development of luminescence signal.
Luminesce signals were measured on BMG PHERAstar FSX using luminescence protocol. Data analysis was carried out using Genedata software following % of control normalization. Fitting parameters include dose response IC50, Hill slope (n), maximum inhibition (S∞), and minimum inhibition (S0). The reported IC50 values for compounds in this invention are the geometric means of at least 2 independent replicates.
(In ADP-Glo the light output rises with the ADP produced.)

Test [2] has as its target T1, WRN. As to the kind of experiment: WRN Helicase activity assay (fluorescence DNA unwinding). The test is classed as biochemical. As to conditions: 1-hr pre-incubation with enzyme; 100 μM ATP, 25 nM forked dsDNA, 1 nM WRN; geometric mean of at least 2 replicates. The procedure: Compounds of the examples were tested for WRN helicase activity. DNA encoding the target protein, 6×HIS-TEV-WRN-517-945, was produced, cloned and transfected as detailed in Example D. To determine the inhibitory properties of the compounds, a 384 wells plate-based Helicase assay was set up to measure the extent of DNA unwinding (Helicase) activity of WRN. The WRN Helicase assay was designed to measure increase in fluorescence signal using a fluorescence based, donor-quencher paired forked dsDNA oligomer substrate (custom synthesis from Sigma-Aldrich) prepared by annealing equal amounts of oligo GPat-1 ([BHQ2][…]) and oligo GPat-2 ([…][TAM]). Continuous measurement of fluorescent signal was used to optimize the buffer conditions, concentration of enzyme (WRN), concentration of substrates (ATP & dsDNA), and the linearity of the Helicase reaction. All solutions were prepared in the following assay buffer: 50 mM Tris-HCl, pH-7.5, 2 mM MgCl2, 50 mM NaCl, 1 mM EGTA, 0.01% P-20, 0.05% BSA, and 2 mM DTT prepared with nuclease free water.
A serial dilution (1:3 scheme) of the compounds was prepared in neat DMSO and 100 nL of the compounds was dispensed in the Greiner black low volume (Greiner #784076) 384 wells assay plate. An 1-hr pre-incubation of the compounds with enzyme was included. A His-tagged construct of WRN (AA S2-S1235) was produced and used for the ATPase assay. Maximum inhibition control wells were set up with the addition of only assay buffer, and no inhibition control wells were set up with neat DMSO without test compounds. The reaction was initiated by addition of 5 μL substrate mix (200 μM ultrapure ATP, and 50 nM dsDNA prepared in assay buffer) and incubated at 25° C. for 35 min. A typical Helicase reaction consists of 25 nM forked dsDNA, 100 μM ATP, and 1 nM WRN prepared in assay buffer. The WRN Helicase reaction was quenched by the addition of 5 μL ‘STOP’ solution containing 100 mM EDTA (final EDTA concentration 33.33 mM) prepared in assay buffer. The plates were read on BMG PHERAstar FSX using 540/590 module to measure an increase of fluorescence. Data analysis was carried out using the Genedata software following % of control normalization. Fitting parameters include dose response IC50, Hill slope (n), maximum inhibition (S∞), and minimum inhibition (S0). The reported IC50 values for compounds in this invention are the geometric means of at least 2 independent replicates.

Where a name gives a salt, the structure may show the parent alone. Bounds are passed on as bounds.

As a reminder, the IC50 is the point on the concentration scale where inhibition reaches its midpoint. High values mean a need for much substance, low ones inhibition by little substance.

T1 sequence (Q14191 2-1235): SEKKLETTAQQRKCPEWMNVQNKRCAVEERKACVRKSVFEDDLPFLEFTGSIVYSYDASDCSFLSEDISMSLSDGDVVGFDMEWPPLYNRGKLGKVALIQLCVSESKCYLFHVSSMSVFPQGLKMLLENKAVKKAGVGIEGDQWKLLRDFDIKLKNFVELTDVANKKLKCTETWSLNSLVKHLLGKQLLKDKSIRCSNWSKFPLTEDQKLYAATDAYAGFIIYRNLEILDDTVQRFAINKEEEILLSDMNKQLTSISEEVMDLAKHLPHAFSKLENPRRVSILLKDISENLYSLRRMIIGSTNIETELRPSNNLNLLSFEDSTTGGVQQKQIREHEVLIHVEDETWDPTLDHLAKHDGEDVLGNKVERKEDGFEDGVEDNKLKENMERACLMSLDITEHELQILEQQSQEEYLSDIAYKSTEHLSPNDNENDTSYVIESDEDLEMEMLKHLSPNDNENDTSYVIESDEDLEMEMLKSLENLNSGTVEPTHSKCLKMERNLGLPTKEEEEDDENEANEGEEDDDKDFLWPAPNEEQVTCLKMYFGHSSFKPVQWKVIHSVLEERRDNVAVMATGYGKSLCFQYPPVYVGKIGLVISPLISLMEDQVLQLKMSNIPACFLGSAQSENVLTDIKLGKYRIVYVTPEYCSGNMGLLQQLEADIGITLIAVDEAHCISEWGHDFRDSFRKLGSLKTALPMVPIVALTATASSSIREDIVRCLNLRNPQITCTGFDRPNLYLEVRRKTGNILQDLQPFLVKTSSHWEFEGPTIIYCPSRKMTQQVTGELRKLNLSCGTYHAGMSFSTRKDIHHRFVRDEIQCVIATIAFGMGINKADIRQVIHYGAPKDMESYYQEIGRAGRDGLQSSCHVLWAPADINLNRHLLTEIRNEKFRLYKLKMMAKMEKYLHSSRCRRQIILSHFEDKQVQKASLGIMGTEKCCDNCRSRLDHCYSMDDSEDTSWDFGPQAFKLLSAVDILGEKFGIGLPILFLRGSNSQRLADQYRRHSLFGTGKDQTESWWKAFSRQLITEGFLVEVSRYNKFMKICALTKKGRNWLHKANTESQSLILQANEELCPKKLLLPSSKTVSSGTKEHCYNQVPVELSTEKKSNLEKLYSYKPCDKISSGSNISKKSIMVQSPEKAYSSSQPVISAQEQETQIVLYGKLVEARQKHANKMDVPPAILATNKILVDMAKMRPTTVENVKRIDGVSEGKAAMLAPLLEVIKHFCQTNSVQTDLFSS

As to `C=CC(=O)Nc1ccccc1-c1c(CC)nc2n(CC(=O)Nc3ccc(C(F)(F)F)cc3)c(C)c(-c3ccccc3)n2c1=O` [Example 15, N-(2-(7-Ethyl-2-methyl-5-oxo-1-(2-oxo-2-((4-(trifluoromethyl)phenyl)amino)ethyl)-3-phenyl-1,5-dihydroimidazo[1,2-a]pyrimidin-6-yl)phenyl)acrylamide], the IC50 in test [1] and in test [2] was under 100 nM in each case.

As to `C=CC(=O)Nc1ccccc1-c1c(C)n(CC(=O)Nc2ccc(C(F)(F)F)cc2)c2nc(CC)c(-c3ccc(C(=O)NCC)cc3)c(=O)n12` [Example 40, 4-(3-(2-Acrylamidophenyl)-7-ethyl-2-methyl-5-oxo-1-(2-oxo-2-((4-(trifluoromethyl)phenyl)amino)ethyl)-1,5-dihydroimidazo[1,2-a]pyrimidin-6-yl)-N-ethylbenzamide, trifluoroacetate salt], the half-maximal inhibitory concentration (IC50) in test [1] and in test [2] was under 100 nM throughout.

For the compound `C=CC(=O)Nc1cc(C(=O)NC2CC2)ccc1-c1c(CC)nc2n(CC(=O)Nc3ccc(C(F)(F)F)cc3)c(C)cn2c1=O` [Example 8, 3-Acrylamido-N-cyclopropyl-4-(7-ethyl-2-methyl-5-oxo-1-(2-oxo-2-((4-(trifluoromethyl)phenyl)amino)ethyl)-1,5-dihydroimidazo[1,2-a]pyrimidin-6-yl)benzamide], the IC50 in test [1] and in test [2] was under 100 nM throughout.

For `C=CC(=O)Nc1cc(C(=O)NCCOC)ccc1-c1c(CC)nc2n(CC(=O)Nc3ccc(C(F)(F)F)cc3)c(C)c(C)n2c1=O` [Example 31, 3-Acrylamido-4-(7-ethyl-2,3-dimethyl-5-oxo-1-(2-oxo-2-((4-(trifluoromethyl)phenyl)amino)ethyl)-1,5-dihydroimidazo[1,2-a]pyrimidin-6-yl)-N-(2-methoxyethyl)benzamide], the IC50 in test [1] and in test [2] was under 100 nM each time.

For `C=CC(=O)Nc1cc(C(=O)NC(C)C)ccc1-c1c(CC)nc2n(CC(=O)Nc3ccc(C(F)(F)F)cc3)c(C)c(C)n2c1=O` [Example 28, 3-Acrylamido-4-(7-ethyl-2,3-dimethyl-5-oxo-1-(2-oxo-2-((4-(trifluoromethyl)phenyl)amino)ethyl)-1,5-dihydroimidazo[1,2-a]pyrimidin-6-yl)-N-isopropylbenzamide], the IC50 in test [1] and in test [2] was under 100 nM throughout.

For the compound `C=CS(=O)(=O)Nc1ccccc1-c1c(CC)nc2n(CC(=O)Nc3ccc(C(F)(F)F)cc3)c(C)cn2c1=O` [Example 6, 2-(7-Ethyl-2-methyl-5-oxo-6-(2-(vinylsulfonamido)phenyl)imidazo[1,2-a]pyrimidin-1(5H)-yl)-N-(4-(trifluoromethyl)phenyl)acetamide], the half-inhibitory concentration (IC50) in test [1] and in test [2] was under 100 nM throughout.

In the case of `C=CC(=O)Nc1ccccc1-c1c(C)n(CC(=O)Nc2ccc(C(F)(F)F)cc2)c2nc(CC)c(C)c(=O)n12` [Example 39, N-(2-(7-Ethyl-2,6-dimethyl-5-oxo-1-(2-oxo-2-((4-(trifluoromethyl)phenyl)amino)ethyl)-1,5-dihydroimidazo[1,2-a]pyrimidin-3-yl)phenyl)acrylamide], the IC50 in test [1] and in test [2] was 100 to 500 nM throughout.

For the compound `CCc1nc2n(CC(=O)Nc3ccc(C(F)(F)F)cc3)c(C)cn2c(=O)c1-c1ccccc1NC(=O)CCl` [Example 7, 2-Chloro-N-(2-(7-ethyl-2-methyl-5-oxo-1-(2-oxo-2-((4-(trifluoromethyl)phenyl)amino)ethyl)-1,5-dihydroimidazo[1,2-a]pyrimidin-6-yl)phenyl)acetamide], the half-maximal inhibitory concentration (IC50) in test [1] and in test [2] was under 100 nM in each case.

Turning to `C=CC(=O)Nc1cc(C(=O)N2CCOCC2)ccc1-c1c(CC)nc2n(CC(=O)Nc3ccc(C(F)(F)F)cc3)c(C)c(C)n2c1=O` [Example 35, N-(2-(7-Ethyl-2,3-dimethyl-5-oxo-1-(2-oxo-2-((4-(trifluoromethyl)phenyl)amino)ethyl)-1,5-dihydroimidazo[1,2-a]pyrimidin-6-yl)-5-(morpholine-4-carbonyl)phenyl)acrylamide], the half-maximal inhibitory concentration (IC50) in test [1] and in test [2] was under 100 nM throughout.

As to `C=CC(=O)Nc1cc(C(=O)NC2CCOCC2)ccc1-c1c(CC)nc2n(CC(=O)Nc3ccc(C(F)(F)F)cc3)c(C)cn2c1=O` [Example 13, 3-Acrylamido-4-(7-ethyl-2-methyl-5-oxo-1-(2-oxo-2-((4-(trifluoromethyl)phenyl)amino)ethyl)-1,5-dihydroimidazo[1,2-a]pyrimidin-6-yl)-N-(tetrahydro-2H-pyran-4-yl)benzamide], the IC50 in test [1] and in test [2] was under 100 nM throughout.

For the compound `C=CC(=O)Nc1c(Cl)cccc1-c1c(CC)nc2n(CC(=O)Nc3ccc(Cl)cc3)c(C)cn2c1=O` [Example 43, N-(2-chloro-6-(1-(2-((4-chlorophenyl)amino)-2-oxoethyl)-7-ethyl-2-methyl-5-oxo-1,5-dihydroimidazo[1,2-a]pyrimidin-6-yl)phenyl)acrylamide], the IC50 in test [1] and in test [2] was under 100 nM throughout.

As to `C=CC(=O)Nc1ccccc1-c1c(C)n(CC(=O)Nc2ccc(F)cc2)c2nc(CC)c(-c3ccccc3)c(=O)n12` [Example 37, N-(2-(7-Ethyl-1-(2-((4-fluorophenyl)amino)-2-oxoethyl)-2-methyl-5-oxo-6-phenyl-1,5-dihydroimidazo[1,2-a]pyrimidin-3-yl)phenyl)acrylamide], the IC50 in test [1] and in test [2] was under 100 nM each time.

In the case of `C=CC(=O)Nc1ccccc1-c1c(CC)nc2n(CC(=O)Nc3ccc(F)cc3Cl)c(C)c(C)n2c1=O` [Example 20, N-(2-(1-(2-((2-Chloro-4-fluorophenyl)amino)-2-oxoethyl)-7-ethyl-2,3-dimethyl-5-oxo-1,5-dihydroimidazo[1,2-a]pyrimidin-6-yl)phenyl)acrylamide], the 50% inhibitory concentration (IC50) in test [1] and in test [2] was under 100 nM throughout.

Turning to `C=CC(=O)Nc1cc(C(=O)NC2CC2)ccc1-c1c(CC)nc2n(CC(=O)Nc3ccc(C(F)(F)F)cc3Cl)c(C)c(C)n2c1=O` [Example 26, 3-Acrylamido-4-(1-(2-((2-chloro-4-(trifluoromethyl)phenyl)amino)-2-oxoethyl)-7-ethyl-2,3-dimethyl-5-oxo-1,5-dihydroimidazo[1,2-a]pyrimidin-6-yl)-N-cyclopropylbenzamide], the IC50 in test [1] and in test [2] was under 100 nM throughout.

Consider `C=CC(=O)Nc1ccccc1-c1c(CC)nc2n(CC(=O)Nc3ccc(F)cc3)ccn2c1=O` [Example 17, N-(2-(7-ethyl-1-(2-((4-fluorophenyl)amino)-2-oxoethyl)-5-oxo-1,5-dihydroimidazo[1,2-a]pyrimidin-6-yl)phenyl)acrylamide], for which the half-inhibitory concentration (IC50) in test [1] and in test [2] was 100 to 500 nM each time.
